Source: PMC10363510 (Plant Communications, 2023)

System: SiAT1
Test: HPLC product assay, Michaelis-Menten fit
Type: biochemical, Sesamum indicum
Conditions: read-out: apparent Km; 75 mM salidroside, 50 mM Tris-HCl pH 7.4, 30°C

Row | Km [µM] | Compound
1 | 1.13 ± 0.42 | CC(C)(COP(=O)(O)OP(=O)(O)OC[C@H]1O[C@@H](n2cnc3c(N)ncnc32)[C@H](O)[C@@H]1OP(=O)(O)O)[C@@H](O)C(=O)NCCC(=O)NCCSC(=O)/C=C/c1ccc(O)c(O)c1 [caffeoyl-CoA]
2 | 1.66 ± 0.39 | CC(C)(COP(=O)(O)OP(=O)(O)OC[C@H]1O[C@@H](n2cnc3c(N)ncnc32)[C@H](O)[C@@H]1OP(=O)(O)O)[C@@H](O)C(=O)NCCC(=O)NCCSC(=O)/C=C/c1ccc(O)cc1 [p-coumaroyl-CoA]
